Test results from patent US20020176820A1, “Functional expression of, and assay for, functional cellular receptors in vivo” (The Trustees of Columbia University, priority 1997, published 2002).
“Also recorded” adds a separate entry of the source.

Assays:
Type in all cases: cell-based
rat I7 odorant receptor [1] = biological target: T1, rat I7 odorant receptor (Rattus norvegicus, UniProt P23270); assay: Electro-olfactogram (EOG) recording from AdexCAG-I7-IRES-GFP infected rat olfactory epithelium; settings: for change of EOG odorant response in I7 virus infected vs uninfected animals: responses normalized to amyl acetate, panel of 74 odorants
T1 construct: expressed in transfected cells; host or cells: rat (Sprague-Dawley) olfactory sensory neurons infected in vivo with recombinant adenovirus AdexCAG-I7-IRES-GFP
T1 sequence (P23270 1-327): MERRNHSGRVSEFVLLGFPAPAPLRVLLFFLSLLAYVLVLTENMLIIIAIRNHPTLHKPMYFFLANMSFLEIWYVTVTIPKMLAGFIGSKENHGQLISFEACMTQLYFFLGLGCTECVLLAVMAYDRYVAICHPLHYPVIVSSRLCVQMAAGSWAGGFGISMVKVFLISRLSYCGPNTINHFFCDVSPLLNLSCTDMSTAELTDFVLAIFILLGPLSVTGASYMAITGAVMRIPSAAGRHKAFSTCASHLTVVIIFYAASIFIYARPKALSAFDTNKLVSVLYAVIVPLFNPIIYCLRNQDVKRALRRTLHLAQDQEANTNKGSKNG
Experimental: Rats (Sprague-Dawley) of various ages and both sexes were used for these experiments. Under anesthesia (ketamine, 90 mg/kg and xylazine, 10 mg/kg, i.p.), 30 μl of rat Ringer solution (in mM, 135, NaCl; 5, I(Cl; 1, CaCl2; 4, MgCl2; 10, HEPES; pH 7.4) containing the AdexCAG-I7-IRES-GFP at a titer of 3×10^9 pfu/ml, and 0.3% fast green dye was slowly injected through the nostril into the right side of the nasal cavity with a short length of thin plastic tubing. The solution was allowed to remain in the nasal cavity. After recovery, the animals were maintained at room temperature with no other treatment until sacrificed.
(§1) The animal was overdosed with anesthetics (Ketamine and xylazine) and decapitated. The head was cut open sagittally and the septum was removed to expose the medial surface of the olfactory turbinates (44 this reference is hereby incorporated by reference in its entirety). The right half of the head was mounted in a wax dish filled with rat Ringer. The medial surface of turbinates was face up and exposed to the air. A continuous stream of humidified clean air was gently blown on the turbinates through tubing to prevent tissue from drying. The opening of the tubing was 8 mm in diameter and placed approximately 10 mm from the turbinate surface.
Odorant solutions were prepared by diluting a 0.5 M stock in DMSO with water. All odorant chemicals were purchased from Aldrich, except Lyral and Lilial which were the kind gift of IFF and Harmon & Reimer Inc. Three milliliters of the odorant solution were placed in a 10 ml glass test tube and capped with a silicon stopper. The concentration of volatile odorant in the 7 cc airspace was allowed to equilibrate for more than 1 hour. All solutions were used within 8 hours. Two 18 gauge needles provided the input and output ports for the odorant containing vapor above the solution. For stimulation a 100 ms pulse of the odorant vapor at 9 psi was injected into the continuous stream of humidified air. The pulse was controlled by a Picospritzer solenoid controlled valve (General Valve). Amyl acetate was used as the reference odorant to control for the variability in responses between animals and during long recording sessions, and was delivered on every sixth trial of odorant stimulation. Three tubes of amyl acetate at 10^−3 M liquid concentration were used alternately in each experiment. The odorant stimulus pathway was cleaned by air between each stimulus presentation. The minimum interval between two adjacent stimuli was 1 minute.
The EOG recording electrode was an Ag/AgCl wire in a capillary glass pipette filled with rat Ringer solution containing 0.6% agarose. The electrode resistance was between 0.5 and 1 MΩ. The recording pipette was placed on the surface of the olfactory epithelium and connected to a differential amplifier (DP-301, Warner Instrument). Placement of the electrode was determined by visualizing GFP fluorescence with a modified stereomicroscope (Kramer Scientific). The EOG potential was observed on a chart recorder, recorded with a DAT tape recorder, and later transferred to computer. For most experiments two electrodes and two amplifiers were used to record EOGs from two different sites of epithelium simultaneously. All experiments were performed at room temperature (22-25° C.).
Odorants were prepared and applied in the following manner. Three milliliters of each odorant solution at a particular concentration were placed in a 10 ml test tube stoppered with a silicone cap, and left for one hour to allow the concentration of volatile odorant in the 7 cc airspace above the solution to equilibrate. Most of the odorants were prepared at a liquid concentration of 10^−2 M to 10^−3 M depending on their relative volatilities. Concentrations of stimulus produced at the olfactory epithelium could not be known, but the system reliably delivered the same amount of stimulus on each trial as there was little variability between responses to successive pulses of the same odorant. […]

rat I7 odorant receptor [2] = biological target: T1, rat I7 odorant receptor; assay: Whole-cell patch clamp recording from isolated GFP positive olfactory neurons infected by AdexCAG-I7-IRES-GFP
Experimental: Whole-cell patch clamp recording was performed on isolated cells with detectable fluorescence (FITC filter). Cell dissociation techniques for olfactory epithelium are described in detail elsewhere (45 this reference is hereby incorporated by reference in its entirety); for these experiments we included only papain treatment and mechanical disruption. Recordings were made with the Axopatch 1D amplifier. […] Data were acquired with the PULSE software (HEKA). Odorants were applied by a constant stream perfusion device (SF77, Warner Instruments) or by pressure pulse. The extracellular solution was the rat Ringer described above. All cells were tested to confirm that they had the normal voltage gated currents before investigating their odorant responses.
The holding potential was −60 mV. The currents varied from 60-250 pA in response to a 50 msec pulse of octanal at approximately 10−4 M, values that are within the range previously reported for rat olfactory neurons (28). […] The odorant induced current reversed around 0 mV.

rat olfactory epithelium = assay: EOG recording from control rat olfactory epithelium (uninfected or infected with GFP-only adenovirus)
Text: as §1
Odorant solutions were prepared by diluting a 0.5 M stock in DMSO with water. All odorant chemicals were purchased from Aldrich, except Lyral and Lilial which were the kind gift of IFF and Harmon & Reimer Inc. Three milliliters of the odorant solution were placed in a 10 ml glass test tube and capped with a silicon stopper. […]
The EOG recording electrode was an Ag/AgCl wire in a capillary glass pipette filled with rat Ringer solution containing 0.6% agarose. […] Placement of the electrode was determined by visualizing GFP fluorescence with a modified stereomicroscope (Kramer Scientific). The EOG potential was observed on a chart recorder, recorded with a DAT tape recorder, and later transferred to computer. […]

`CCCCCCCCCC=O` [decyl aldehyde] was tested, and the “change of EOG odorant response in I7 virus infected vs uninfected animals” value (“change of EOG odorant response” below) (rat I7 odorant receptor [1]) was “increased odorant response”.

`CCCCCCC=O` [heptaldehyde] was tested, and the “change of EOG odorant response” value (rat I7 odorant receptor [1]) was “increased odorant response”.

For `CCCCCC=O` [hexaldehyde], the “change of EOG odorant response” value (rat I7 odorant receptor [1]) was “not”.

`CCCCCCCCC=O` [nonyl aldehyde] was tested, and the “change of EOG odorant response” value (rat I7 odorant receptor [1]) was “increased odorant response”.

In the case of `CCCCCCCC=O` [octyl aldehyde], the “reversal potential of odorant induced current” value (rat I7 odorant receptor [2]) is reported as “around 0 mV”, the “latency of odorant induced current” value (rat I7 odorant receptor [2]; 50 msec pulse at approximately 10−4 M) is reported as 100 to 250 ms and the odorant induced current (rat I7 odorant receptor [2]; 50 msec pulse at approximately 10−4 M, holding potential −60 mV) is reported as 60-250 pA. For the same compound, the “cells with odorant induced current” value (rat I7 odorant receptor [2]; isolated GFP positive neurons) was 5 of 5, the “EOG response in animals infected with adenovirus containing only the GFP gene” value (rat olfactory epithelium; GFP-only adenovirus, same CAG promoter, compared with uninfected animals) was “not different from uninfected animals” and the “response ratio of octyl aldehyde to amyl acetate” value (rat olfactory epithelium; normal (uninfected) animals, 5×10^−5 M in solution) was 1. For the same compound, the “difference in response magnitude (octyl aldehyde compared to amyl acetate) in infected versus control epithelia” value (rat I7 odorant receptor [1]; dose-response at various concentrations, FIG. 5c) was no more than 7 fold, the “relative EOG amplitude after moving electrode from high fluorescence to regions with little or no GFP expression” value (rat I7 odorant receptor [1]; infected animals) was “significantly reduced” and the “response ratio of octyl aldehyde to amyl acetate” value (rat I7 odorant receptor [1]; infected animals, odorant concentration in solution 5×10^−5 M) was 7 times. The “EOG response in animals with lower infection rates” value (rat I7 odorant receptor [1]; infection judged by extent of GFP fluorescence) was “comparably smaller”, the “average EOG response in infected vs. uninfected animals” value (rat I7 odorant receptor [1]; normalized to amyl acetate, comparatively high odorant concentrations near saturation) was 1.7 times and the “change of EOG odorant response” value (rat I7 odorant receptor [1]) was “dramatically greater; also recorded: increased odorant response”.

With `CCCCC/C=C/C=O` [trans-2-octenal] the “change of EOG odorant response” value (rat I7 odorant receptor [1]) was “failed to elicit responses larger than in normal animals”.

With `CCCCCCCCCCC=O` [undecylic aldehyde] the “change of EOG odorant response” value (rat I7 odorant receptor [1]) was “not”.
